Measurements: paper PMC6271619, “Synthesis, Half-Wave Potentials and Antiproliferative Activity of 1-Aryl-substituted Aminoisoquinolinequinones” (Molecules, 2014)

How the values were obtained:
[1] = Cyclic voltammetry, first half-wave potential; assay type: physicochemical; conditions: for E^I1/2 (first half-wave potential) / −E^I1/2: acetonitrile, Pt electrode, vs non-aqueous Ag/Ag+; for −E^I1/2: sign inverted, 0.1 M tetraethylammonium tetrafluoroborate, sweep rate 100 mV s^−1
Procedure: The redox potentials of the members of the series were measured by cyclic voltammetry in acetonitrile as solvent, at room temperature, using a platinum electrode and 0.1 M tetraethylammonium tetrafluoroborate as the supporting electrolyte. […] The voltammograms were run in the potential range 0–2.0 V versus non-aqueous Ag/Ag+. The first half-wave potential values, E^I1/2, evaluated from the voltammograms obtained at a sweep rate of 100 mV s^−1, are summarized in Table 3.

[2] = test system: AGS human gastric adenocarcinoma cells; test: MTT cell growth inhibition assay, AGS gastric adenocarcinoma cells, 72 h exposure; assay type: cell-based; conditions: for IC50: human gastric adenocarcinoma cell line, MTT, 72 h, mean of six determinations, read-out: IC50 ± SEM AGS; for selectivity index (IS), AGS: MRC-5 relative to AGS
[3] = test system: HL-60 human promyelocytic leukemia cells; test: MTT cell growth inhibition assay, HL-60 promyelocytic leukemia cells, 72 h exposure; assay type: cell-based; conditions: for IC50: Homo sapiens, HL-60, promyelocytic leukemia cell line, MTT, 72 h, mean of six determinations, read-out: IC50 ± SEM HL-60
[4] = test system: MRC-5 normal human lung fibroblasts; test: MTT cell growth inhibition assay, MRC-5 normal lung fibroblasts, 72 h exposure; conditions: MRC5, 72 h, read-out: IC50 ± SEM MRC-5
Procedure: Aminoisoquinolinequinones 5a–h and 6a–f were evaluated for in vitro antiproliferative activity against normal human lung fibroblast MRC-5 and two human cancer cells lines: AGS gastric adenocarcinoma and HL-60 promyelocytic leukemia cells, in 72 h drugs exposure assays. The antiproliferative activity of the new compounds was measured using conventional microculture tetrazolium reduction assays [25, 26, 27].
The cell lines used in this work were obtained from the American Type Culture Collection (ATCC, Manasas, VA, USA). […] The cells were stored in medium containing 10% glycerol in liquid nitrogen. […] Cells were sub-cultured once a week and the medium was changed every two days. Cells were grown in the following media: MRC-5 in Eagle minimal essential medium (EMEM), AGS cells in Ham F-12, and HL-60 in suspension in RPM1. The EMEM medium contained 2 mM L-glutamine, 1 mM sodium pyruvate and 1.5 g/L sodium hydrogen carbonate. Ham F-12 was supplemented with 2 mM L-glutamine and 1.5 g/L sodium hydrogen carbonate. RPM1 medium containing 1mM sodium pyruvate and 2.0 g/L sodium bicarbonate. […] For the experiments, cells were plated at a density of 50,000 cells/mL in 96-well plates. One day after seeding, the cells were treated with the medium containing the compounds at concentrations ranging from 0 up to 100 μM during 3 days. […] The compounds were dissolved in DMSO (1% final concentration) and complete medium. Untreated cells (medium containing 1% DMSO) were used as controls. At the end of the incubation, the MTT reduction (3-(4,5-dimethylthiazol-2-yl)-2,5-diphenyltetrazolium bromide) assay was carried out to determine cell viability. The final concentration of MTT was 1 mg/mL. The culture medium containing the compounds under evaluation, was removed from each well by means by vacuum aspiration before adding the MTT solution. MTT metabolite was dissolved adding 100 µL of ethanol (acidified with HCl). The plates were shaken for 10 min and the absorbance was measured at 550 nm using a Universal Microplate Reader (ELx800, Bio-Tek Instruments Inc., Winnoski, VT, USA). Six replicates for each concentration were used and the values were averaged. […] The IC50 value was obtained adjusting the dose-response curve to a sigmoidal model (a + (b − a)/1 + 10^(x − c)), where c = log IC50.

Structure (SMILES)	E^I1/2 (first half-wave potential) [1]	−E^I1/2 [1]	melting point	IC50 [2]	IC50 [3]	E^I1/2 (half-wave potential) [1]	IC50 [4]	antiproliferative activity on AGS cancer cell line (in words) ([2]; effect of phenyl group inserted at 1-position of 5b)	selectivity index (IS), AGS [2]	selectivity index (IS), HL-60 ([3]; MRC-5 relative to HL-60)
COC(=O)c1c(C)ncc2c1C(=O)C=CC2=O [3a]	−352 mV	352 mV	–	–	–	–	–	–	–	–
COC(=O)c1c(C)nc(-c2ccccc2)c2c1C(=O)C=CC2=O [3b, Methyl 3-methyl-5,8-dioxo-1-phenyl-5,8-dihydroisoquinoline-4-carboxylate]	–	399 mV	175 to 176.5 °C	–	–	–	–	–	–	–
COC(=O)c1c(C)nc(-c2cccs2)c2c1C(=O)C=CC2=O [3c, Methyl 3-methyl-5,8-dioxo-1-(thiophen-2-yl)-5,8-dihydroisoquinoline-4-carboxylate]	–	392 mV	140 to 142.5 °C	–	–	–	–	–	–	–
COC(=O)c1c(C)nc(-c2ccco2)c2c1C(=O)C=CC2=O [3d, Methyl 1-(furan-2-yl)-3-methyl-5,8-dioxo-5,8-dihydroisoquinoline-4-carboxylate]	–	415 mV	159.5 to 160.5 °C	–	–	–	–	–	–	–
CC(=O)c1c(C)ncc2c1C(=O)C=CC2=O [4a, 4-Acetyl-3-methylisoquinoline-5,8-dione]	−344 mV	344 mV	146 to 148 °C	–	–	–	–	–	–	–
CC(=O)c1c(C)nc(-c2ccccc2)c2c1C(=O)C=CC2=O [4b, 4-Acetyl-3-methyl-1-phenylisoquinoline-5,8-dione]	–	416 mV	162.5 to 164 °C	–	–	–	–	–	–	–
CC(=O)c1c(C)nc(-c2cccs2)c2c1C(=O)C=CC2=O [4c, 4-Acetyl-3-methyl-1-(thiophen-2-yl)isoquinoline-5,8-dione]	–	430 mV	161.5 to 163 °C	–	–	–	–	–	–	–
CC(=O)c1c(C)nc(-c2ccco2)c2c1C(=O)C=CC2=O [4d, 4-Acetyl-1-(furan-2-yl)-3-methylisoquinoline-5,8-dione]	–	384 mV	159 to 160 °C	–	–	–	–	–	–	–

Further lines, with some results ahead:

E^I1/2 (first half-wave potential) [1]	−E^I1/2 [1]	melting point	IC50 [2]	IC50 [3]	E^I1/2 (half-wave potential) [1]	Structure (SMILES)	IC50 [4]	antiproliferative activity on AGS cancer cell line (in words) ([2]; effect of phenyl group inserted at 1-position of 5b)	selectivity index (IS), AGS [2]	selectivity index (IS), HL-60 ([3]; MRC-5 relative to HL-60)
–	563 mV	–	1.1 ± 0.03 µM	14.8 ± 0.74 µM	–	COC(=O)c1c(C)ncc2c1C(=O)C=C(Nc1ccccc1)C2=O [5a]	2.7 ± 0.6 µM	–	–	–
–	551 mV	–	1.1 ± 0.1 µM	3.8 ± 0.07 µM	–	COC(=O)c1c(C)ncc2c1C(=O)C=C(Nc1ccc(OC)cc1)C2=O [5b]	2.8 ± 0.8 µM	–	–	–
–	560 mV	169.9 to 171.4 °C	2.52 ± 0.17 µM	4.39 ± 0.26 µM	–	COC(=O)c1c(C)nc(-c2ccccc2)c2c1C(=O)C=C(Nc1ccccc1)C2=O [5c, Methyl 3-methyl-5,8-dioxo-1-phenyl-7-(phenylamino)-5,8-dihydroisoquinoline-4-carboxylate]	5.91 ± 0.36 µM	–	–	–
–	583 mV	202 to 203.5 °C	> 100 µM	> 100 µM	–	COC(=O)c1c(C)nc(-c2ccccc2)c2c1C(=O)C=C(Nc1ccc(OC)cc1)C2=O [5d, Methyl 7-(4-methoxyphenylamino)-3-methyl-5,8-dioxo-1-phenyl-5,8-dihydroisoquinoline-4-carboxylate]	> 100 µM	suppression of the antiproliferative activity	–	–
–	565 mV	163.3 to 165.3 °C	4.24 ± 0.21 µM	5.19 ± 0.31 µM	–	COC(=O)c1c(C)nc(-c2cccs2)c2c1C(=O)C=C(Nc1ccccc1)C2=O [5e, Methyl 3-methyl-5,8-dioxo-7-(phenylamino)-1-(thiophen-2-yl)-5,8-dihydroisoquinoline-4-carboxylate]	9.89 ± 0.51 µM	–	–	–
–	583 mV	214 to 216 °C	3.28 ± 0.13 µM	10.26 ± 0.09 µM	–	COC(=O)c1c(C)nc(-c2cccs2)c2c1C(=O)C=C(Nc1ccc(OC)cc1)C2=O [5f, Methyl 7-(4-methoxyphenylamino)-3-methyl-5,8-dioxo-1-(thiophen-2-yl)-5,8-dihydroisoquinoline-4-carboxylate]	9.19 ± 0.53 µM	–	–	–
–	554 mV	248 to 249 °C	1.79 ± 0.11 µM	5 ± 0.35 µM	–	COC(=O)c1c(C)nc(-c2ccco2)c2c1C(=O)C=C(Nc1ccccc1)C2=O [5g, Methyl 1-(2-furan-2-yl)-3-methyl-5,8-dioxo-7-(phenylamino)-5,8-dihydroisoquinoline-4-carboxylate]	4.72 ± 0.29 µM	–	–	–
–	577 mV	144 to 146 °C	1.83 ± 0.11 µM	8.04 ± 0.49 µM	–	COC(=O)c1c(C)nc(-c2ccco2)c2c1C(=O)C=C(Nc1ccc(OC)cc1)C2=O [5h, Methyl 1-(2-furan-2-yl)-7-(4-methoxyphenylamino)-3-methyl-5,8-dioxo-5,8-dihydroisoquinoline-4-carboxylate]	4.58 ± 0.35 µM	–	–	–
−464 mV	464 mV	178 to 180 °C	1.19 ± 0.07 µM	1.24 ± 0.06 µM	-464 mV	CC(=O)c1c(C)ncc2c1C(=O)C=C(Nc1ccccc1)C2=O [6a, 4-Acetyl-3-methyl-7-(phenylamino)isoquinoline-5,8-dione]	3.67 ± 0.22 µM	–	3.08	2.96
–	588 mV	181.5 to 183 °C	2.21 ± 0.09 µM	4.74 ± 0.37 µM	–	CC(=O)c1c(C)nc(-c2ccccc2)c2c1C(=O)C=C(Nc1ccccc1)C2=O [6b, 4-Acetyl-3-methyl-1-phenyl-7-(phenylamino)isoquinoline-5,8-dione]	5.51 ± 0.22 µM	–	–	–
–	576 mV	93.5 to 94.5 °C	> 100 µM	> 100 µM	–	CC(=O)c1c(C)nc(-c2cccs2)c2c1C(=O)C=C(Nc1ccccc1)C2=O [6c, 4-Acetyl-3-methyl-7-(phenylamino)-1-(thiophen-2-yl)isoquinoline-5,8-dione]	> 100 µM	–	–	–
–	533 mV	187 to 188.5 °C	1.79 ± 0.11 µM	8.19 ± 0.57 µM	–	CC(=O)c1c(C)nc(-c2ccco2)c2c1C(=O)C=C(Nc1ccccc1)C2=O [6d, 4-Acetyl-1-(2-furyl)-3-methyl-7-(phenylamino)isoquinoline-5,8-dione]	5.72 ± 0.24 µM	–	–	–
–	570 mV	162 to 163 °C	4.66 ± 0.28 µM	9.36 ± 0.72 µM	–	COc1ccc(NC2=CC(=O)c3c(C(C)=O)c(C)nc(-c4ccccc4)c3C2=O)cc1 [6e, 4-Acetyl-7-(4-methoxyphenylamino)-3-methyl-1-phenylisoquinoline-5,8-dione]	16.1 ± 1.11 µM	–	–	–
–	576 mV	188.5 to 190 °C	4.28 ± 0.21 µM	> 100 µM	–	COc1ccc(NC2=CC(=O)c3c(C(C)=O)c(C)nc(-c4cccs4)c3C2=O)cc1 [6f, 4-Acetyl-7-(4-methoxyphenylamino)-3-methyl-1-(thiophen-2-yl)isoquinoline-5,8-dione]	> 100 µM	–	> 23	–
